This passage reports inhibition results from patent publication US20230157996A1, “SMALL-MOLECULE INHIBITOR TARGETING EB VIRUS NUCLEAR ANTIGEN PROTEIN, PREPARATION METHOD AND USE THEREOF” (priority 2020, published 2023).

For this experiment, the system named is C666-1 cells. The experiment can be described thus: C666-1 cell viability single concentration (50 μM) inhibition rate (Resazurin). In kind it is cell-based. The conditions noted are these: Homo sapiens, C6661, 72 h, 50 μM compound, 72 hours, C666-1 cells; read-out: C666-1 cell viability single concentration (50 μM) inhibition rate, Ratio* (Inh %). Put shortly:
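EBV-positive C666-1 cells (5×10^3/well), pre-cultured 24 h, were exposed to compound at 50 μmol/L final for 72 h at 37° C, 5% CO2, in duplicate. Viability by resazurin (3 h, ex 560/em 590 nm); inhibition rate computed relative to DMSO control and medium-only blank.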
A general note: The colour change of resazurin is a common sign of viable cells or microbes.
In the case of `COC(=O)c1cccc(N2CC([S+]([O-])c3ccc(C)cc3)C2)c1-n1cccc1` (stereo not shown) [Example 191, Methyl 2-(1H-pyrrol-1-yl)-3-(3-(p-tolylsulfinyl)azetidin-1-yl)benzoate], the inhibition at 50 µM is 10 to 30%.

Take `COC(=O)c1cccc(N2CC(S(=O)(=O)c3ccc(C)cc3)C2)c1-n1cccc1` [Example 192, Methyl 2-(1H-pyrrol-1-yl)-3-(3-(p-tolylsulfonyl)azetidin-1-yl)benzoate]: the inhibition at 50 µM is 10 to 30%.

On to `Cc1ccc([S+]([O-])C2CN(c3cccc(C(=O)O)c3-n3cccc3)C2)cc1` (stereo not shown) [Example 193], for which the inhibition at 50 µM is less than 10%.

For the compound `COC(=O)c1cccc(N2CC(Oc3ccc(Oc4ccc(Cl)cc4)cc3)C2)c1-n1cccc1` [Example 194, Methyl 3-(3-(4-(4-chlorophenoxy)phenoxy)azetidin-1-yl)-2-(1H-pyrrol-1-yl)benzoate], the inhibition at 50 µM is less than 10%.

In the case of `O=C(O)c1cccc(N2CC(Oc3ccc(Oc4ccc(Cl)cc4)cc3)C2)c1-n1cccc1` [Example 195, 3-(3-(4-(4-chlorophenoxy)phenoxy)azetidin-1-yl)-2-(1H-pyrrol-1-yl)benzoic acid], the inhibition at 50 µM fell in the range of 10 to 30%.

`COC(=O)c1cccc(N2CC(Oc3ccc(Oc4cccc(OC)c4)cc3)C2)c1-n1cccc1` [Example 196, Methyl 3-(3-(4-(3-methoxyphenoxy)phenoxy)azetidin-1-yl)-2-(1H-pyrrol-1-yl)benzoate]: the inhibition at 50 µM was less than 10%.

In the case of `COC(=O)c1cccc(N2CC(Oc3ccc(Oc4ccccc4)c(Cl)c3)C2)c1-n1cccc1` [Example 198, Methyl 3-(3-(3-chloro-4-phenoxyphenoxy)azetidin-1-yl)-2-(1H-pyrrol-1-yl)benzoate], the inhibition at 50 µM is less than 10%.

In the case of `O=C(O)c1cccc(N2CC(Oc3ccc(Oc4ccccc4)c(Cl)c3)C2)c1-n1cccc1` [Example 199, 3-(3-(3-chloro-4-phenoxyphenoxy)azetidin-1-yl)-2-(1H-pyrrol-1-yl)benzoic acid], the inhibition at 50 µM was in the range of 30 to 50%.

As for `COC(=O)c1cccc(N2CC(Oc3ccc(Oc4ccccc4)c(F)c3)C2)c1-n1cccc1` [Example 200, Methyl 3-(3-(3-fluoro-4-phenoxyphenoxy)azetidin-1-yl)-2-(1H-pyrrol-1-yl)benzoate], the inhibition at 50 µM was less than 10%.

As to `O=C(O)c1cccc(N2CC(Oc3ccc(Oc4ccccc4)c(F)c3)C2)c1-n1cccc1` [Example 201, 3-(3-(3-fluoro-4-phenoxyphenoxy)azetidin-1-yl)-2-(1H-pyrrol-1-yl)benzoic acid], the inhibition at 50 µM was in the range of 30 to 50%.

Consider `COC(=O)c1cccc(N2CC(Oc3ccc(Oc4ccc(F)cc4)cc3)C2)c1-n1cccc1` [Example 202, Methyl 3-(3-(4-(4-fluorophenoxy)phenoxy)azetidin-1-yl)-2-(1H-pyrrol-1-yl)benzoate], for which the inhibition at 50 µM was less than 10%.

`O=C(O)c1cccc(N2CC(Oc3ccc(Oc4ccc(F)cc4)cc3)C2)c1-n1cccc1` [Example 203, 3-(3-(4-(4-fluorophenoxy)phenoxy)azetidin-1-yl)-2-(1H-pyrrol-1-yl)benzoic acid]: the inhibition at 50 µM fell in the range of 10 to 30%.

On to `COC(=O)c1cccc(N2CC(Oc3cc(F)c(Oc4ccccc4)c(F)c3)C2)c1-n1cccc1` [Example 204, Methyl 3-(3-(3,5-difluoro-4-phenoxyphenoxy)azetidin-1-yl)-2-(1H-pyrrol-1-yl)benzoate], for which the inhibition at 50 µM is less than 10%.

`O=C(O)c1cccc(N2CC(Oc3cc(F)c(Oc4ccccc4)c(F)c3)C2)c1-n1cccc1` [Example 205, 3-(3-(3,5-difluoro-4-phenoxyphenoxy)azetidin-1-yl)-2-(1H-pyrrol-1-yl)benzoic acid]: the inhibition at 50 µM was less than 10%.

With `COC(=O)c1cccc(N2CC(Oc3ccc(Oc4ccc(C(C)=O)cc4)cc3)C2)c1-n1cccc1` [Example 206, Methyl 3-(3-(4-(4-acetylphenoxy)phenoxy)azetidin-1-yl)-2-(1H-pyrrol-1-yl)benzoate], the inhibition at 50 µM was less than 10%.

Regarding `CC(=O)c1ccc(Oc2ccc(OC3CN(c4cccc(C(=O)O)c4-n4cccc4)C3)cc2)cc1` [Example 207, 3-(3-(4-(4-acetylphenoxy)phenoxy)azetidin-1-yl)-2-(1H-pyrrol-1-yl)benzoic acid], the inhibition at 50 µM is 10 to 30%.

Turning to `COC(=O)c1cccc(N2CC(Oc3ccc(Sc4ccccc4)cc3)C2)c1-n1cccc1` [Example 208, Methyl 3-(3-(4-(thiophenyl)phenoxy)azetidin-1-yl)-2-(1H-pyrrol-1-yl)benzoate], the inhibition at 50 µM was less than 10%.

On to `O=C(O)c1cccc(N2CC(Oc3ccc(Sc4ccccc4)cc3)C2)c1-n1cccc1` [Example 209, 3-(3-(4-(thiophenyl)phenoxy)azetidin-1-yl)-2-(1H-pyrrol-1-yl)benzoic acid], for which the inhibition at 50 µM is 10 to 30%.

Take `COC(=O)c1cccc(N2CC(Oc3ccc(Oc4ccc(C#N)cc4)cc3)C2)c1-n1cccc1` [Example 210, Methyl 3-(3-(4-(4-cyanophenoxy)phenoxy)azetidin-1-yl)-2-(1H-pyrrol-1-yl)benzoate]: the inhibition at 50 µM fell in the range of 10 to 30%.

Take `N#Cc1ccc(Oc2ccc(OC3CN(c4cccc(C(=O)O)c4-n4cccc4)C3)cc2)cc1` [Example 211, 3-(3-(4-(4-cyanophenoxy)phenoxy)azetidin-1-yl)-2-(1H-pyrrol-1-yl)benzoic acid]: the inhibition at 50 µM was less than 10%.

Regarding `COC(=O)c1cccc(N2CC(Oc3ccc(Oc4ccc(S(C)(=O)=O)cc4)cc3)C2)c1-n1cccc1` [Example 212, Methyl 3-(3-(4-(4-(methylsulfonyl)phenoxy)phenoxy)azetidin-1-yl)-2-(1H-pyrrol-1-yl)benzoate], the inhibition at 50 µM fell in the range of 10 to 30%.

Take `CS(=O)(=O)c1ccc(Oc2ccc(OC3CN(c4cccc(C(=O)O)c4-n4cccc4)C3)cc2)cc1` [Example 213, 3-(3-(4-(4-(methylsulfonyl)phenoxy)phenoxy)azetidin-1-yl)-2-(1H-pyrrol-1-yl)benzoic acid]: the inhibition at 50 µM was less than 10%.

As for `CCC(=O)c1ccc(OC2CN(c3cccc(C(=O)OC)c3-n3cccc3)C2)cc1` [Example 214, Methyl 3-(3-(4-propionylphenoxy)azetidin-1-yl)-2-(1H-pyrrol-1-yl)benzoate], the inhibition at 50 µM is less than 10%.

Turning to `CCC(=O)c1ccc(OC2CN(c3cccc(C(=O)O)c3-n3cccc3)C2)cc1` [Example 215, 3-(3-(4-propionylphenoxy)azetidin-1-yl)-2-(1H-pyrrol-1-yl)benzoic acid], the inhibition at 50 µM was less than 10%.

Regarding `COC(=O)c1cccc(N2CC(Oc3ccc(C(=O)C(C)C)cc3)C2)c1-n1cccc1` [Example 216, Methyl 3-(3-(4-isobutyrylphenoxy)azetidin-1-yl)-2-(1H-pyrrol-1-yl)benzoate], the inhibition at 50 µM was less than 10%.

Regarding `CC(C)C(=O)c1ccc(OC2CN(c3cccc(C(=O)O)c3-n3cccc3)C2)cc1` [Example 217, 3-(3-(4-isobutyrylphenoxy)azetidin-1-yl)-2-(1H-pyrrol-1-yl)benzoic acid], the inhibition at 50 µM is less than 10%.

As to `COCCOc1ccc(OC2CN(c3cccc(C(=O)OC)c3-n3cccc3)C2)cc1OC` [Example 218, Methyl 3-(3-(3-methoxy-4-(2-methoxyethoxy)phenoxy)azetidin-1-yl)-2-(1H-pyrrol-1-yl)benzoate], the inhibition at 50 µM lay in the range of 10 to 30%.

For the compound `COCCOc1ccc(OC2CN(c3cccc(C(=O)O)c3-n3cccc3)C2)cc1OC` [Example 219, 3-(3-(3-methoxy-4-(2-methoxyethoxy)phenoxy)azetidin-1-yl)-2-(1H-pyrrol-1-yl)benzoic acid], the inhibition at 50 µM was less than 10%.

In the case of `COC(=O)c1cccc(N2CC(Oc3ccc(OCCNC(C)=O)c(OC)c3)C2)c1-n1cccc1` [Example 220, Methyl 3-(3-(4-(2-acetylaminoethoxy)-3-methoxyphenoxy)azetidin-1-yl)-2-(1H-pyrrol-1-yl)benzoate], the inhibition at 50 µM lay within 10 to 30%.

With `COc1cc(OC2CN(c3cccc(C(=O)O)c3-n3cccc3)C2)ccc1OCCNC(C)=O` [Example 221, 3-(3-(4-(2-acetylaminoethoxy)-3-methoxyphenoxy)azetidin-1-yl)-2-(1H-pyrrol-1-yl)benzoic acid], the inhibition at 50 µM is less than 10%.

`COC(=O)c1cccc(N2CC(Oc3cccc(Oc4ccccc4)c3)C2)c1-n1cccc1` [Example 222, Methyl 3-(3-(3-phenoxyphenoxy)azetidin-1-yl)-2-(1H-pyrrol-1-yl)benzoate]: the inhibition at 50 µM was less than 10%.

Take `O=C(O)c1cccc(N2CC(Oc3cccc(Oc4ccccc4)c3)C2)c1-n1cccc1` [Example 223, 3-(3-(3-phenoxyphenoxy)azetidin-1-yl)-2-(1H-pyrrol-1-yl)benzoic acid]: the inhibition at 50 µM was less than 10%.

Regarding `COCCOc1ccc(OC2CN(c3cccc(C(=O)OC)c3-n3cccc3)C2)cc1` [Example 224, Methyl 3-(3-(4-(2-methoxyethoxy)phenoxy)azetidin-1-yl)-2-(1H-pyrrol-1-yl)benzoate], the inhibition at 50 µM is less than 10%.

With `COCCOc1ccc(OC2CN(c3cccc(C(=O)O)c3-n3cccc3)C2)cc1` [Example 225, 3-(3-(4-(2-methoxyethoxy)phenoxy)azetidin-1-yl)-2-(1H-pyrrol-1-yl)benzoic acid], the inhibition at 50 µM was 10 to 30%.

As for `COC(=O)c1cccc(N2CC(Oc3ccc(NC(=S)Nc4ccc(Cl)cc4)cc3)C2)c1-n1cccc1` [Example 226, Methyl 3-(3-(4-(3-(4-chlorophenyl)thioureido)phenoxy)azetidin-1-yl)-2-(1H-pyrrol-1-yl)benzoate], the inhibition at 50 µM fell in the range of 10 to 30%.

With `COC(=O)c1cccc(N2CC(Oc3ccc(NC(=S)Nc4cccc(Cl)c4)cc3)C2)c1-n1cccc1` [Example 227, Methyl 3-(3-(4-(3-(3-chlorophenyl)thioureido)phenoxy)azetidin-1-yl)-2-(1H-pyrrol-1-yl)benzoate], the inhibition at 50 µM is 10 to 30%.

Regarding `COC(=O)c1cccc(N2CC(Oc3ccc(NC(=S)Nc4cccc(C#N)c4)cc3)C2)c1-n1cccc1` [Example 228, Methyl 3-(3-(4-(3-(3-cyanophenyl)thioureido)phenoxy)azetidin-1-yl)-2-(1H-pyrrol-1-yl)benzoate], the inhibition at 50 µM is more than 50%.
